Patent US7244692B2, “Substituted benzoylcyclohexane diones for use as herbicides” (Bayer Aktiengesellschaft, priority 1999, dated 2007)
Read-outs that look alike come from different tables or passages of the source.

What was measured:
[1] = logP determination by HPLC, reverse-phase column (C 18), EEC Directive 79/831 Annex V.A8; type: physicochemical
Description: Temperature: 43° C. • (a) Mobile phases for the determination in the acidic range: 0.1% aqueous phosphoric acid, acetonitrile; linear gradient from 10% acetonitrile to 90% acetonitrile—the corresponding test results in Table 1 are labelled ^a). • (b) Mobile phases for the determination in the neutral range: 0.01 molar aqueous phosphate buffer solution, acetonitrile; linear gradient from 10% acetonitrile to 90% acetonitrile—the corresponding test results in Table 1 are labelled ^b).

weeds [2] = experiment: Pre-Emergence Test (Example A); type: in vivo; conditions: soil sprayed 24 hours after sowing, rated after three weeks
Description: (§1) • Solvent: 5 parts by weight of acetone • Emulsifier: 1 part by weight of alkylaryl polyglycol ether
(§2) To produce a suitable preparation of active compound, 1 part by weight of active compound is mixed with the stated amount of solvent, the stated amount of emulsifier is added and the concentrate is diluted with water to the desired concentration.
Seeds of the test plants are sown in normal soil. After 24 hours, the soil is sprayed with the preparation of active compound such that the particular amount of active compound desired is applied per unit area. The concentration of active compound in the spray liquor is chosen such that the particular amount of active compound desired is applied in 1000 litres of water per hectare.
After three weeks, the degree of damage to the plants is rated in % damage in comparison to the development of the untreated control. The figures denote: • 0%=no effect (like untreated control) • 100%=total destruction

weeds [3] = experiment: Post-Emergence Test (Example B); type: in vivo; conditions: test plants of 5-15 cm sprayed, rated after three weeks
Description: as §1, §2
Test plants of a height of 5-15 cm are sprayed with the preparation of active compound such that the particular amounts of active compound desired are applied per unit area. The concentration of the spray liquor is chosen such that the particular amounts of active compound desired are applied in 1000 l of water/ha.
After three weeks, the degree of damage to the plants is rated in % damage in comparison to the development of the untreated control.
The figures denote: • 0%=no effect (like untreated control) • 100%=total destruction

[4] = labelled a): acidic range, 0.1% aqueous phosphoric acid/acetonitrile, linear gradient 10% to 90% acetonitrile, 43° C.
[5] = no a)/b) label printed, mobile phase not given

logP [1]	logP [1, 4]	SMILES	activity against weeds (degree of damage) (weeds [3])	further results
0.55^a)		CCCN1CCNC1=O [(VI-5)]		
logP = 0.76^a)		CCCN1CCCNC1=O [(VI-15)]		
logP = 1.09		CCN1CCCCNC1=O [(VI-30)]		
		CN1CCN(Cc2c(Cl)ccc(C(=O)C3C(=O)CCCC3=O)c2Cl)C1=O [Example 1, 2-[2,4-dichloro-3-[(3-methyl-2-oxo-imidazolidin-1-yl)-methyl]-benzoyl]-1,3-cyclohexanedione]	strong activity against weeds	activity against weeds (degree of damage) (weeds [2]): strong activity against weeds
	logP = 2.55^a)	CC1CC(=O)C(C(=O)c2ccc(Cl)c(CN3CCCN(C)C3=O)c2Cl)C(=O)C1 (stereo not shown) [Example 2]	strong activity against weeds	activity against weeds (degree of damage) (weeds [2]): strong activity against weeds
	logP = 2.79^a)	CN1CCCN(Cc2c(Cl)ccc(C(=O)C3C(=O)CC(C)(C)CC3=O)c2Cl)C1=O [Example 3]	strong activity against weeds	activity against weeds (degree of damage) (weeds [2]): strong activity against weeds
	logP = 2.89^a)	CN1CCCN(Cc2c(Cl)ccc(C(=O)C3C(=O)CCC(C)(C)C3=O)c2Cl)C1=O (stereo not shown) [Example 4]	strong activity against weeds	activity against weeds (degree of damage) (weeds [2]): strong activity against weeds
	logP = 3.22^a)	CC(C)C1CC(=O)C(C(=O)c2ccc(Cl)c(CN3CCCN(C)C3=O)c2Cl)C(=O)C1 (stereo not shown) [Example 5]	strong activity against weeds	
	logP = 3.21^a)	CN1CCCN(Cc2c(Cl)ccc(C(=O)C3C(=O)CC(c4ccccc4)CC3=O)c2Cl)C1=O (stereo not shown) [Example 6]	strong activity against weeds	
	logP = 2.43^a)	CC1CC(=O)C(C(=O)c2ccc(Cl)c(CN3CCN(C)C3=O)c2Cl)C(=O)C1 (stereo not shown) [Example 7]	strong activity against weeds	activity against weeds (degree of damage) (weeds [2]): strong activity against weeds
	logP = 2.67^a)	CN1CCN(Cc2c(Cl)ccc(C(=O)C3C(=O)CC(C)(C)CC3=O)c2Cl)C1=O [Example 8]	strong activity against weeds	activity against weeds (degree of damage) (weeds [2]): strong activity against weeds
	logP = 2.75^a)	CN1CCN(Cc2c(Cl)ccc(C(=O)C3C(=O)CCC(C)(C)C3=O)c2Cl)C1=O (stereo not shown) [Example 9]	strong activity against weeds	activity against weeds (degree of damage) (weeds [2]): strong activity against weeds
	logP = 3.09^a)	CC(C)C1CC(=O)C(C(=O)c2ccc(Cl)c(CN3CCN(C)C3=O)c2Cl)C(=O)C1 (stereo not shown) [Example 10]	strong activity against weeds	
	logP = 3.10^a)	CN1CCN(Cc2c(Cl)ccc(C(=O)C3C(=O)CC(c4ccccc4)CC3=O)c2Cl)C1=O (stereo not shown) [Example 11]	strong activity against weeds	
	logP = 2.71^a)	CCN1CCN(Cc2c(Cl)ccc(C(=O)C3C(=O)CC(C)CC3=O)c2Cl)C1=O (stereo not shown) [Example 12]	strong activity against weeds	activity against weeds (degree of damage) (weeds [2]): strong activity against weeds
	logP = 2.37^a)	CCN1CCN(Cc2c(Cl)ccc(C(=O)C3C(=O)CCCC3=O)c2Cl)C1=O [Example 13]	strong activity against weeds	activity against weeds (degree of damage) (weeds [2]): strong activity against weeds
	logP = 2.96^a)	CCN1CCN(Cc2c(Cl)ccc(C(=O)C3C(=O)CC(C)(C)CC3=O)c2Cl)C1=O [Example 14]	strong activity against weeds	
logP = 3.07^a)		CCN1CCN(Cc2c(Cl)ccc(C(=O)C3C(=O)CCC(C)(C)C3=O)c2Cl)C1=O (stereo not shown) [Example 15]		
	logP = 3.40^a)	CCN1CCN(Cc2c(Cl)ccc(C(=O)C3C(=O)CC(C(C)C)CC3=O)c2Cl)C1=O (stereo not shown) [Example 16]	strong activity against weeds	
	logP = 3.38^a)	CCN1CCN(Cc2c(Cl)ccc(C(=O)C3C(=O)CC(c4ccccc4)CC3=O)c2Cl)C1=O (stereo not shown) [Example 17]	strong activity against weeds	
	logP = 2.05^a)	COc1c(C(=O)C2C(=O)CCCC2=O)ccc(Cl)c1CN1CCCN(C)C1=O [Example 18]	strong activity against weeds	activity against weeds (degree of damage) (weeds [2]): strong activity against weeds

logP [1]	logP [1, 4]	SMILES	activity against weeds (degree of damage) (weeds [3])	further results
logP = 2.00^a)		COc1c(C(=O)C2C(=O)CCCC2=O)ccc(Cl)c1CN1CCN(C)C1=O [Example 19]		
logP = 2.83^a)		CN1CCN(Cc2c(Cl)ccc(C(=O)C3C(=O)CC4(CCC4)CC3=O)c2Cl)C1=O [Example 20]		
logP = 3.15^a)		CCN1CCN(Cc2c(Cl)ccc(C(=O)C3C(=O)CC4(CCC4)CC3=O)c2Cl)C1=O [Example 21]		
logP = 1.70^a)		CN1CCN(Cc2c(S(C)(=O)=O)ccc(C(=O)C3C(=O)CCCC3=O)c2Cl)C1=O [Example 22]		
logP = 1.91^a)		CCN1CCN(Cc2c(S(C)(=O)=O)ccc(C(=O)C3C(=O)CCCC3=O)c2Cl)C1=O [Example 23]		
	logP = 1.96^a)	CN1CCN(Cc2c(F)ccc(C(=O)C3C(=O)CCCC3=O)c2Cl)C1=O [Example 24]	strong activity against weeds	activity against weeds (degree of damage) (weeds [2]): strong activity against weeds
logP = 2.68^a)		CCN1CCN(Cc2cc(C(F)(F)F)ccc2C(=O)C2C(=O)CCCC2=O)C1=O [Example 25]		
logP = 1.73^a)		CN1CCCN(Cc2c(S(C)(=O)=O)ccc(C(=O)C3C(=O)CCCC3=O)c2Cl)C1=O [Example 41]		
logP = 2.69^a)		CCCN1CCN(Cc2c(Cl)ccc(C(=O)C3C(=O)CCCC3=O)c2Cl)C1=O [Example 46]		
logP = 3.08^a)		CCCCN1CCN(Cc2c(Cl)ccc(C(=O)C3C(=O)CCCC3=O)c2Cl)C1=O [Example 47]		
logP = 3.03^a)		CC(C)CN1CCN(Cc2c(Cl)ccc(C(=O)C3C(=O)CCCC3=O)c2Cl)C1=O [Example 48]		
logP = 2.59^a)		CN1CCCN(Cc2cc(C(F)(F)F)ccc2C(=O)C2C(=O)CCCC2=O)C1=O [Example 49]		
logP = 2.18^a)		CCN1CCN(Cc2c(F)ccc(C(=O)C3C(=O)CCCC3=O)c2Cl)C1=O [Example 50]		
logP = 2.41^a)		CN1CCN(Cc2cc(C(F)(F)F)ccc2C(=O)C2C(=O)CCCC2=O)C1=O [Example 51]		
		CCCN1CCN(Cc2c(Cl)ccc(C(=O)OC)c2Cl)C1=O [IV-12]		logP [1, 5]: logP = 2.62
		COC(=O)c1ccc(Cl)c(CN2CCN(C(C)C)C2=O)c1Cl [IV-13]		logP [1, 5]: logP = 2.56
		CCCCN1CCN(Cc2c(Cl)ccc(C(=O)OC)c2Cl)C1=O [IV-15]		logP [1, 5]: logP = 3.0
		COC(=O)c1ccc(Cl)c(CN2CCN(CC(C)C)C2=O)c1Cl [IV-16]		logP [1, 5]: logP = 2.95
logP = 2.33^a)		COC(=O)c1ccc(S(C)(=O)=O)c(CBr)c1Cl [V-2]		
logP = 1.87^a)		COC(=O)c1ccc(S(C)(=O)=O)cc1CBr [V-6]		

SMILES	logP [1]	logP [1, 4]	activity against weeds (degree of damage) (weeds [3])	further results
CCN1CCN(Cc2c(Cl)ccc(C(=O)OC)c2Cl)C1=O [IV-2]		logP = 2.26^a)		
CCN1CCN(Cc2c(S(C)(=O)=O)ccc(C(=O)OC)c2Cl)C1=O [IV-3]		logP = 1.55^a)		
COC(=O)c1ccc(S(C)(=O)=O)c(CN2CCN(C)C2=O)c1Cl [IV-4]		logP = 1.55^a)		
COC(=O)c1ccc(Cl)c(CN2CCN(C)C2=O)c1OC [IV-5]		logP = 1.92^a)		
COC(=O)c1ccc(Cl)c(CN2CCCN(C)C2=O)c1Cl [IV-6]		logP = 2.07^a)		
COC(=O)c1ccc(Cl)c(CN2CCCN(C)C2=O)c1OC [IV-10]		logP = 2.03^a)		
CCN1CCN(Cc2cc(C(F)(F)F)ccc2C(=O)OC)C1=O [IV-11]		logP = 2.62^a)		
